Laboratory results as given in patent US20260265273A1, “SOLID FORM OF FUSED RING COMPOUND, AND PREPARATION METHOD THEREFOR AND USE THEREOF” (APPLIED PHARMACEUTICAL SCIENCE, INC., priority 2022, published 2026).

Legend:
[1] = Hygroscopicity test (DVS); type: physicochemical
Experimental: Dynamic vapor sorption (DVS) curves were acquired on a DVS Intrinsic in SMS (Surface Measurement Systems). The relative humidity at 25° C. was corrected with the deliquescence points of LiCl, Mg(NO3)2, and KCl.

[2] = Solid-state stability test (XRPD, HPLC purity); type: physicochemical
[3] = Solubility Test II (saturated solubility by HPLC); type: physicochemical; settings: 37° C., 24 h
Experimental: Chromatographic column: Waters XTERRA RP18, 4.6 mm×150 mm, 3.5 μm or an equivalent chromatographic column. […] The gradient elution conditions are shown in Table 3-2. pH 4.5 acetate buffer: 0.59806 g of sodium acetate trihydrate was added to a 200-mL measuring flask and dissolved in an appropriate amount of water; 1.6 mL of glacial acetic acid was added; and the mixture was diluted to volume to obtain the pH 4.5 acetate buffer. pH 6.8 phosphate buffer: 1.38501 g of potassium dihydrogen phosphate and 0.18086 g of sodium hydroxide were added to the same 200-mL measuring flask; and the mixture was dissolved in water and diluted to volume to obtain the pH 6.8 phosphate buffer. 10.0 mL of each medium was precisely measured, and the media were placed into different 25-mL measuring flasks; an appropriate amount of each test crystal form was added; and the flasks were sealed and oscillated in an oscillator at 37° C. for 24 h to obtain supersaturated solutions. pH 6.8 phosphate buffer sample solution: the supersaturated solution prepared using the pH 6.8 phosphate buffer medium was filtered to obtain the pH 6.8 phosphate buffer sample solution. Water sample solution: the supersaturated solution prepared using the water medium was filtered to obtain the water sample solution. pH 4.5 acetate buffer sample solution: the supersaturated solution prepared using the pH 4.5 acetate buffer medium was filtered, and 1.0 mL of the filtrate was precisely measured and placed into a 10-mL measuring flask; the filtrate was diluted to volume with the pH 4.5 acetate buffer medium, and 1.0 mL of the solution was then precisely measured and placed into the 10-mL measuring flask; and the solution was diluted to volume with methanol to obtain the pH 4.5 acetate buffer sample solution. (ii) Preparation of crystal form A sample solution: pH 6.8 phosphate buffer sample solution: the supersaturated solution prepared using the pH 6.8 phosphate buffer medium was filtered to obtain the pH 6.8 phosphate buffer sample solution. Water sample solution: the supersaturated solution prepared using the water medium was filtered to obtain the water sample solution. pH 4.5 acetate buffer sample solution: the supersaturated solution prepared using the pH 4.5 acetate buffer medium was filtered, and 1.0 mL of the filtrate was precisely measured and placed into a 10-mL measuring flask; the filtrate was diluted to volume with the pH 4.5 acetate buffer medium, and 1.0 mL of the solution was then precisely measured and placed into a 25-mL measuring flask; and the solution was diluted to volume with methanol to obtain the pH 4.5 acetate buffer sample solution. Each medium sample solution was taken, 10 μL of each test sample solution was precisely measured and injected into a liquid chromatograph according to the chromatography conditions described above, and the chromatogram was recorded. The saturated solution degree of each medium was calculated according to the formula below. In the formula: WR=sample weight of control solution, mg; PR=purity factor of control; • AS=peak area of main peak in test solution: DS=dilution factor of test solution; • AR=peak area of main peak in control solution; DR=dilution factor of control solution;

[4] = Pharmacokinetic experiment in SD rats; type: in vivo; settings: oral intragastric 10 mg/kg, 1 mg/mL in 5% DMSO in normal saline, compound I in plasma, 0.25-24 h
Experimental: Six SPF-grade SD rats were prepared and weighed before administration. The dose of administration was calculated based on the weight. […] These administration solutions were orally and intragastrically administered at 10 mg/kg. The rats were weighed before administration, and the dose of administration was calculated based on the weight. 3 rats were used for each crystal form. The administration solutions were orally and intragastrically administered, followed by collection of samples via the jugular vein or other suitable means at the following time points: 0.25 […], and 24 h. About 0.20 mL of each sample was collected, and the plasma was separated out by centrifugation within 2 h. The compound I was detected, and plasma drug concentration-time curves were plotted. The pharmacokinetic parameters were calculated by utilizing WinNonlin according to the plasma concentration data at different time points.

[5] = Crystal form change on drying or standing at room conditions; type: physicochemical
Experimental: 20 mg of the amorphous form Z prepared according to the method in Example 1 was weighed into a 3-mL vial. The solid was dissolved in 1.0-1.5 mL of solvent NMP (N-methylpyrrolidone), and the resulting mixture was filtered through a filter membrane to obtain a clear solution. About 4 mL of anti-solvent ACN was added to a 20-mL vial. The uncovered 3-mL vial containing the filtrate was placed into the 20-mL vial, and then the 20-mL vial was sealed and allowed to stand at room temperature. The solid was precipitated and collected to obtain the crystal form I. The X-ray powder diffraction pattern of this crystal form is shown in FIG. 9.
After drying in the air, the crystal form P was transformed to the anhydrous crystal form C. Thus, the crystal form P was determined to be a hydrate.

[6] = 1H-NMR analysis of salt crystal forms; type: physicochemical; settings: DMSO-d6
Experimental: 1 g of the amorphous form Z prepared according to the method in Example 1 was weighed into a vial, and 14 mL of trichloromethane was added; the mixture was stirred at 35° C. for complete dissolution to obtain a solution 1; 102.64 mg of maleic acid was completely dissolved in 2 mL of ethanol to obtain a solution 2; 551 μL of the solution 2 was added to 0.7 mL of the solution 1 with stirring at room temperature, and no solid was precipitated; the mixture was stirred for 5 h and then placed at 4-8° C. overnight, and no solid was precipitated; 0.8 mL of methyl tert-butyl ether was added to obtain a turbid solution, and the turbid solution was stirred to obtain an oil; 0.4 mL of methyl tert-butyl ether was supplemented; and the mixture was successively stirred overnight, centrifuged, and dried in vacuum at 25° C. to obtain the crystal form T. The X-ray powder diffraction pattern of this crystal form is shown in FIG. 24A. […]

[7] = 25° C./60% RH/uncovered, 2 weeks
[8] = 25° C./60% RH/uncovered, 4 weeks
[9] = 25° C./60% RH/uncovered, 6 weeks
[10] = 40° C./75% RH/uncovered, 2 weeks
[11] = 40° C./75% RH/uncovered, 4 weeks
[12] = 40° C./75% RH/uncovered, 6 weeks
[13] = DVS, isothermal adsorption curve

CCOc1cc(-c2ccc(N3CC4CC(C3)N4Cc3ccc(OC)nc3)nc2)c2c3cn[nH]c3nn2c1 (single isomer, unassigned) [Crystal form B]
hygroscopicity evaluation ([1]; DVS at 25° C., 0% RH-95% RH, according to Chinese Pharmacopoeia 2015 Edition): slightly hygroscopic
hygroscopic weight gain ([1]; DVS, 25° C./80% RH, listed as crystal form B): about 1.0%
crystal form after the DVS test (XRPD) ([1]; after DVS test): not changed
Purity (area %) [2, 7]: 99.96 area %
Relative to initial purity (%) [2, 7]: 100.01%
Purity (area %) [2, 8]: 99.96 area %
Relative to initial purity (%) [2, 8]: 100.01%
Purity (area %) [2, 9]: 99.96 area %
Relative to initial purity (%) [2, 9]: 100.01%
Purity (area %) [2, 10]: 99.96 area %
Relative to initial purity (%) [2, 10]: 100.01%
Crystal form change ([2]; 40° C./75% RH/uncovered, 2 weeks, XRPD): No change
Purity (area %) [2, 11]: 99.96 area %
Relative to initial purity (%) [2, 11]: 100.01%
Purity (area %) [2, 12]: 99.96 area %
Relative to initial purity (%) [2, 12]: 100.01%
Purity (area %) ([2]; 60° C./sealed, 24 h): 99.97 area %
Relative to initial purity (%) ([2]; 60° C./sealed, 24 h): 100.01%
HPLC purity under the test conditions ([2]; all stability conditions (60° C. sealed 24 h; 25° C./60% RH and 40° C./75% RH uncovered 2, 4, 6 weeks)): not significantly reduced
crystal form under the test conditions ([2]; all stability conditions, XRPD): not changed
Saturated solubility ([3]; Water): 0.34 µg/mL
Saturated solubility ([3]; pH 4.5 acetate buffer, listed as crystal form B): 3107.54 µg/mL
Saturated solubility ([3]; pH 6.8 phosphate buffer): 0.02 µg/mL
AUC(0-t) [4]: 10424 ng·h/mL

CCOc1cc(-c2ccc(N3CC4CC(C3)N4Cc3ccc(OC)nc3)nc2)c2c3cn[nH]c3nn2c1 [crystal form I]
crystal form after drying ([5]; drying at room temperature): transformed to the crystal form A

CCOc1cc(-c2ccc(N3CC4CC(C3)N4Cc3ccc(OC)nc3)nc2)c2c3cn[nH]c3nn2c1 [crystal form P]
crystal form of the wet sample after standing ([5]; placed in the air for about 10 min): transformation to the crystal form C

CCOc1cc(-c2ccc(N3CC4CC(C3)N4Cc3ccc(OC)nc3)nc2)c2c3cn[nH]c3nn2c1 [crystal form Q]
crystal form after standing ([5]; placed at room temperature and room humidity): transferred to the hydrate crystal form M

CCOc1cc(-c2ccc(N3CC4CC(C3)N4Cc3ccc(OC)nc3)nc2)c2c3cn[nH]c3nn2c1 [crystal form R]
RH at which the form started to significantly absorb water and underwent polymorphic transition to hydrate crystal form S [1, 13]: 50 % RH

CCOc1cc(-c2ccc(N3CC4CC(C3)N4Cc3ccc(OC)nc3)nc2)c2c3cn[nH]c3nn2c1 [crystal form S]
RH at which the form started to dehydrate and underwent polymorphic transition to anhydrous crystal form R [1, 13]: 40 % RH

CCOc1cc(-c2ccc(N3CC4CC(C3)N4Cc3ccc(OC)nc3)nc2)c2c3cn[nH]c3nn2c1 [crystal form T]
stability in the 1H-NMR analysis [6]: decomposition occurred
